assay: recombinant UMI read abundance after kanamycin selection (control-corrected) (log10(CPM+1)); higher = more efficient recombination; extreme values may be limits of the assay; sequences stand for … in AGTGCAGAGAAAATCGGCCAGTTTTCTCTGCCTGCAGTCCGCATGCCGTGGGACCCCTTGGGTTCTAACCTGTTGCCTAGATTTATGCAGCGGACTGCCTTTCTCCCAAAGTGATAAACCGG…AGGTTGGTTTCACT; site = the 11-nt donor
Summary of the method: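 After plating on IPTG (0.07 mM) plus kanamycin, or unselected, in two replicates, recombinant UMIs were PCR-amplified across the donor–target junction and sequenced. The cells were Escherichia coli co-electroporated with a UMI-tagged donor and donor-binding-loop pair library and a target plasmid with a fixed target and T7-inducible IS621 bridge recombinase. Values are log10(CPM+1), with CPM averaged over replicates and scaled by control-derived factors.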

Row | Sequence | recombinant UMI read abundance (log10)
1 | ATCGTCCCATGGACCGGTTTTCCCGGTAATCCGTATTTGAT (site ATCGTCCCTAT) | 0.563
2 | ATCTACCCATGGACCGGTTTTCCCGGTAATCCGTATTTGGC (site ATCTACCCTGC) | 0.584
3 | ATCTAGACATGGACCGGTTTTCCCGGTAATCCGTATTTGGG (site AACTAGACTCC) | 0.0333
4 | ATCTAGACATGGACCGGTTTTCCCGGTAATCCGTATTTGGG (site ACCTAGACTCC) | 0.00659
5 | ATCTAGACATGGACCGGTTTTCCCGGTAATCCGTATTTGGG (site AGCTAGACTCC) | 0.313
6 | ATCTAGACATGGACCGGTTTTCCCGGTAATCCGTATTTGGG (site ATCTAGACTCC) | 0.0102
7 | ATCTATACATGGACCGGTTTTCCCGGTAATCCGTATTTGAT (site ATCTATACTAT) | 1.02
8 | ATCTATACATGGACCGGTTTTCCCGGTAATCCGTATTTGAT (site ATCTATACTCT) | 0.147
9 | ATCTATACATGGACCGGTTTTCCCGGTAATCCGTATTTGAT (site ATCTATACTGT) | 0
10 | ATCTATACATGGACCGGTTTTCCCGGTAATCCGTATTTGAT (site ATCTATACTTT) | 0.00795
11 | ATCTATCCATGGACCGGTTTTCCCGGTAATCCGTATTTGCT (site ATCTATCCTAG) | 1.24
12 | ATCTCTGCATGGACCGGTTTTCCCGGTAATCCGTATTTGCT (site ATCTCTGCTAG) | 1.73
13 | ATCTGCCCATGGACCGGTTTTCCCGGTAATCCGTATTTGCT (site ATCTGCCCTAG) | 0.548
14 | ATCTGCTCATGGACCGGTTTTCCCGGTAATCCGTATTTGGA (site ATCTGCTCTTC) | 1.49
15 | ATCTGGGCATGGACCGGTTTTCCCGGTAATCCGTATTTGGT (site ATCTGGGCTAC) | 0.162
16 | ATCTTGGCATGGACCGGTTTTCCCGGTAATCCGTATTTGGG (site ATCTTGGCTCC) | 0.448
17 | ATGAAGACATGGACCGGTTTTCCCGGTAATCCGTATTTGCA (site AAGAAGACTTG) | 1.29
18 | ATGAAGACATGGACCGGTTTTCCCGGTAATCCGTATTTGCA (site ACGAAGACTTG) | 2.34
19 | ATGAAGACATGGACCGGTTTTCCCGGTAATCCGTATTTGCA (site AGGAAGACTTG) | 1.02
20 | ATGAAGACATGGACCGGTTTTCCCGGTAATCCGTATTTGCA (site ATGAAGACTTG) | 2.64
21 | ATGAAGACATGGACCGGTTTTCCCGGTAATCCGTATTTGGA (site AGGAAGACTTG) | 0
22 | ATGAAGACATGGACCGGTTTTCCCGGTAATCCGTATTTGGA (site ATGAAGACTTC) | 1.52
23 | ATGACAACATGGACCGGTTTTCCCGGTAATCCGTATTTGGA (site ATGACAACTTC) | 1.22
24 | ATGACGCCATGGACCGGTTTTCCCGGTAATCCGTATTTGGA (site ATGACGCCTTC) | 0.0104
25 | ATGAGCACATGGACCGGTTTTCCCGGTAATCCGTATTTGGC (site ATGAGCACTGC) | 2.98

Row | Sequence | recombinant UMI read abundance (log10)
26 | ATGATAACATGGACCGGTTTTCCCGGTAATCCGTATTTGCC (site ATGATAACTGG) | 3.06
27 | ATGCAGACATGGACCGGTTTTCCCGGTAATCCGTATTTGTC (site ATGCAGACTGA) | 2.43
28 | ATGCCGCCATGGACCGGTTTTCCCGGTAATCCGTATTTGGG (site ATGCCGCCTCC) | 0.0227
29 | ATGCGTTCATGGACCGGTTTTCCCGGTAATCCGTATTTGAC (site ATGCGTTCTGT) | 2.37
30 | ATGCGTTCATGGACCGGTTTTCCCGGTAATCCGTATTTGCG (site ATGCGTTCTCG) | 1.96
31 | ATGCTACCATGGACCGGTTTTCCCGGTAATCCGTATTTGCT (site ATGCTACCTAG) | 0
32 | ATGCTACCATGGACCGGTTTTCCCGGTAATCCGTATTTGCT (site CTGCTACCTAG) | 0
33 | ATGCTACCATGGACCGGTTTTCCCGGTAATCCGTATTTGCT (site GTGCTACCTAG) | 0
34 | ATGCTACCATGGACCGGTTTTCCCGGTAATCCGTATTTGCT (site TTGCTACCTAG) | 0
35 | ATGGCAACATGGACCGGTTTTCCCGGTAATCCGTATTTGTG (site ATGGCAACTCA) | 0.02
36 | ATGGGCCCATGGACCGGTTTTCCCGGTAATCCGTATTTGTC (site ATGGGCCCTGA) | 0.504
37 | ATGGTCGCATGGACCGGTTTTCCCGGTAATCCGTATTTGTT (site ATGGTCGCTAA) | 1.29
38 | ATGGTGTCATGGACCGGTTTTCCCGGTAATCCGTATTTGCT (site ATGGTGTCTAG) | 3.4
39 | ATGTAGGCATGGACCGGTTTTCCCGGTAATCCGTATTTGGA (site ATGTAGGCTAC) | 0.451
40 | ATGTAGGCATGGACCGGTTTTCCCGGTAATCCGTATTTGGA (site ATGTAGGCTCC) | 0.209
41 | ATGTAGGCATGGACCGGTTTTCCCGGTAATCCGTATTTGGA (site ATGTAGGCTGC) | 1.58
42 | ATGTAGGCATGGACCGGTTTTCCCGGTAATCCGTATTTGGA (site ATGTAGGCTTC) | 1
43 | ATGTATACATGGACCGGTTTTCCCGGTAATCCGTATTTGAC (site ATATATACTGT) | 2.59
44 | ATGTATACATGGACCGGTTTTCCCGGTAATCCGTATTTGAC (site ATCTATACTGT) | 0.457
45 | ATGTATACATGGACCGGTTTTCCCGGTAATCCGTATTTGAC (site ATGTATACTGT) | 3.18
46 | ATGTATACATGGACCGGTTTTCCCGGTAATCCGTATTTGAC (site ATTTATACTGT) | 0.661
47 | ATGTCCGCATGGACCGGTTTTCCCGGTAATCCGTATTTGCC (site ATGTCCGCTGG) | 2.45
48 | ATGTGGGCATGGACCGGTTTTCCCGGTAATCCGTATTTGTA (site ATGTGGGCTTA) | 2.32
49 | ATGTTGGCATGGACCGGTTTTCCCGGTAATCCGTATTTGGC (site ATGTAGGCTGC) | 1.71
50 | ATGTTGGCATGGACCGGTTTTCCCGGTAATCCGTATTTGGC (site ATGTCGGCTGC) | 0.939

Row | Sequence | recombinant UMI read abundance (log10)
51 | ATGTTGGCATGGACCGGTTTTCCCGGTAATCCGTATTTGGC (site ATGTGGGCTGC) | 0.332
52 | ATGTTGGCATGGACCGGTTTTCCCGGTAATCCGTATTTGGC (site ATGTTGGCTGC) | 2.68
53 | ATTAAGACATGGACCGGTTTTCCCGGTAATCCGTATTTGAA (site ATTAAGACTTT) | 1.43
54 | ATTACGACATGGACCGGTTTTCCCGGTAATCCGTATTTGGG (site ATTACGACTCC) | 0.00852
55 | ATTATTACATGGACCGGTTTTCCCGGTAATCCGTATTTGCA (site ATTATTACTTG) | 1.8
56 | ATTCATGCATGGACCGGTTTTCCCGGTAATCCGTATTTGGT (site ATTCATGCTAC) | 0.729
57 | ATTCCATCATGGACCGGTTTTCCCGGTAATCCGTATTTGGA (site ATTCCATCTTC) | 0.345
58 | ATTCGTCCATGGACCGGTTTTCCCGGTAATCCGTATTTGGT (site ATTCGTCCTAC) | 0.0259
59 | ATTGACACATGGACCGGTTTTCCCGGTAATCCGTATTTGGT (site ATTGAAACTAC) | 0.168
60 | ATTGACACATGGACCGGTTTTCCCGGTAATCCGTATTTGGT (site ATTGACACTAC) | 0.911
61 | ATTGACACATGGACCGGTTTTCCCGGTAATCCGTATTTGGT (site ATTGAGACTAC) | 0.811
62 | ATTGACACATGGACCGGTTTTCCCGGTAATCCGTATTTGGT (site ATTGATACTAC) | 0.459
63 | ATTGAGACATGGACCGGTTTTCCCGGTAATCCGTATTTGCT (site ATTGAGACTAA) | 0.627
64 | ATTGAGACATGGACCGGTTTTCCCGGTAATCCGTATTTGCT (site ATTGAGACTAC) | 0.379
65 | ATTGAGACATGGACCGGTTTTCCCGGTAATCCGTATTTGCT (site ATTGAGACTAG) | 2.42
66 | ATTGAGACATGGACCGGTTTTCCCGGTAATCCGTATTTGCT (site ATTGAGACTAT) | 0.827
67 | ATTGAGACATGGACCGGTTTTCCCGGTAATCCGTATTTGGC (site ATTGAGACTAC) | 0.0133
68 | ATTGAGACATGGACCGGTTTTCCCGGTAATCCGTATTTGGC (site ATTGAGACTCC) | 0.38
69 | ATTGAGACATGGACCGGTTTTCCCGGTAATCCGTATTTGGC (site ATTGAGACTGC) | 1.83
70 | ATTGAGACATGGACCGGTTTTCCCGGTAATCCGTATTTGGC (site ATTGAGACTTC) | 0.679
71 | ATTGAGACATGGACCGGTTTTCCCGGTAATCCGTATTTGTT (site ATTGAGACTAA) | 1.71
72 | ATTGAGACATGGACCGGTTTTCCCGGTAATCCGTATTTGTT (site ATTGAGACTAC) | 0.013
73 | ATTGAGACATGGACCGGTTTTCCCGGTAATCCGTATTTGTT (site ATTGAGACTAG) | 2.02
74 | ATTGAGACATGGACCGGTTTTCCCGGTAATCCGTATTTGTT (site ATTGAGACTAT) | 0.811
75 | ATTGAGCCATGGACCGGTTTTCCCGGTAATCCGTATTTGGT (site ATTGAGACTAC) | 0.00491
